We go through seven molecules from ChEMBL document CHEMBL5260828, “Amphiphilic glycoconjugates as potential anti-cancer chemotherapeutics” (Eur J Med Chem, 2018).

Each structure is given as a SMILES string. ≈ marks a conversion by molar mass, not a printed value.

For assay [1], the system named is HeLa. As to the kind of experiment: Cytotoxicity against human HeLa cells assessed as reduction of cell viability incubated for 48 hrs by MTT assay. The assay is classed as functional, cell-based. In general terms: Formazan colour is commonly taken as a measure of viable cells.
A further assay has as its system Jurkat. As to the kind of experiment: Cytotoxicity against human Jurkat cells incubated for 16 hrs by MTS colorimetric assay. It counts as functional, cell-based.
The test system of another assay is HBL-100. As to the kind of experiment: Antiproliferative activity against human HBL-100 cells assessed as inhibition of cell proliferation incubated for 48 hrs by SRB assay. The assay is classed as functional, cell-based. The note with it: HBL-100, 48 h.
In a further assay the test system is SW1573. The assay is described as follows: Antiproliferative activity against human SW1573 cells assessed as inhibition of cell proliferation incubated for 48 hrs by SRB assay. The assay is classed as functional, cell-based. Conditions: SW1573, 48 h.
For a further assay, the system named is T47D. The assay is described as follows: Antiproliferative activity against human T47D cells assessed as inhibition of cell proliferation incubated for 48 hrs by SRB assay. The assay is classed as functional, cell-based. In general terms: In SRB staining, fixed cells bind dye roughly in proportion to their protein.
The test system of assay [2] is HeLa. The assay is described as follows: Antiproliferative activity against human HeLa cells assessed as inhibition of cell proliferation incubated for 48 hrs by SRB assay. The assay is classed as functional, cell-based.
In a further assay the test system is WiDr. As to the kind of experiment: Antiproliferative activity against human WiDr cells assessed as inhibition of cell proliferation incubated for 48 hrs by SRB assay. The assay is classed as functional, cell-based.
In the next assay the test system is A549. As to the kind of experiment: Antiproliferative activity against human A549 cells assessed as inhibition of cell proliferation incubated for 48 hrs by SRB assay. It counts as functional, cell-based. The note with it: A549, 48 h.
Another assay deals with DLD-1. As to the kind of experiment: Cytotoxicity against human DLD-1 cells. It counts as functional, cell-based.
A further assay deals with MRC5. As to the kind of experiment: Cytotoxicity against human MRC5 cells. It counts as functional, cell-based.
A further assay relates to HT-29. As to the kind of experiment: Cytotoxicity against human HT-29 cells. The assay is classed as functional, cell-based.
The test system of the next assay is SAOS-2. As to the kind of experiment: Cytotoxicity against human SAOS-2 cells. It counts as functional, cell-based.
The test system of the next assay is HFF. As to the kind of experiment: Cytotoxicity against human HFF cells. The assay is classed as functional, cell-based.
For the next assay, the system named is NCI-H460. As to the kind of experiment: Cytotoxicity against human NCI-H460 cells. The assay is classed as functional, cell-based.
A further assay has as its system SW480. As to the kind of experiment: Cytotoxicity against human SW480 cells. It counts as functional, cell-based.
For another assay, the system named is MCF7. As to the kind of experiment: Antiproliferative activity against human MCF7 cells assessed as inhibition of cell proliferation incubated for 24 hrs by trypan blue assay. It counts as functional, cell-based. Conditions: MCF7, 24 h.
In assay [3] the test system is HL-60. As to the kind of experiment: Induction of apoptosis in human HL-60 cells at 5 uM incubated for 24 hrs by Annexin V-FITC/PI based flow cytometric analysis. The assay is classed as functional. Background: Flow cytometry measures light scatter and fluorescence of single cells or particles in a stream.
Another assay deals with THP-1. As to the kind of experiment: Cytotoxicity against human THP-1 cells assessed as inhibition of cell growth incubated for 22 hrs by MTS spectrophotometric assay. It counts as functional, cell-based. Conditions: THP-1, 22 h.
The subject of assay [4] is HL-60. As to the kind of experiment: Cytotoxicity against human HL-60 cells assessed as inhibition of cell growth incubated for 22 hrs by MTS spectrophotometric assay. Conditions: HL-60, 22 h. It counts as functional, cell-based.

The IC50 is the concentration at which inhibition is half-maximal. With `CCCCCCCCCCCCCCCC(=O)OCc1cn([C@@H]2O[C@H](CO)[C@@H](O)[C@H](O)[C@H]2O)nn1`, the half-inhibitory concentration (IC50) with HeLa [1] amounted to 121 µM.

The molecule `CCCCCCCCCCCCCCCCn1cc(CO[C@@H]2O[C@H](CO)[C@@H](O)[C@H](O)[C@H]2O)nn1` gave an IC50 in the assay with Jurkat of 24 µM.

With `CCCCCCCCN[C@@H]1[C@H](O)[C@@H](O)[C@@H](O)[C@H]2COC(=O)N21`, the IC50 in the assay on HBL-100, in the assay on SW1573, with T47D, in the assay with HeLa [2], in the assay on WiDr and in the assay on A549 was 30 µM each time.

On to `C[C@@H](N)[C@H](O)CCCCCCCC(=O)CCCCCCCCCCCCCC[C@H](O)[C@H](N)CO[C@@H]1O[C@H](CO)[C@@H](O)[C@H](O)[C@H]1O`, for which the IC50 with DLD-1, in the assay on MRC5, with HT-29, in the assay with SAOS-2, in the assay on HFF and in the assay on NCI-H460 was 3 mg/L (≈ 4.62 µM) throughout. Inhibition with SW480 was half-maximal at 3 mg/L (≈ 4.62 µM) (IC50).

With `CCCCCCCC[C@@H]1[C@H](O)[C@@H](O)[C@H](O)[C@H]2COC(=O)N12`, in the assay with MCF7, the IC50 was 22 µM.

In the assay on HL-60 [3], `C[C@@H](N)[C@H](O)CCCCCCCCCCCCCCC(=O)CCCCCCC[C@@H](O)[C@@H](C)N` showed an Activity of 93%.

As for `C[C@@H](N)[C@H](O)CCCCCCCC(=O)CCCCCCCCCCCCCC[C@H](O[C@@H]1O[C@H](CO)[C@H](O)[C@H](O)[C@H]1O)[C@@H](C)N`, the IC50 in the assay with THP-1 and in the assay on HL-60 [4] was 1.7 µM throughout.
